Results taken from US20250144094A1 (Erasca, Inc., priority 2021, published 2025).

Molecular target: Recombinant human ULK1 (1-649) (Homo sapiens (Human), UniProt O75385)
Assay: ULK1 ADP Glo kinase activity assay (MBP substrate)
Conditions: 25° C., 40 minutes, read-out: ULK1 biochemical IC50
Procedure, shortened: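 GST-tagged ULK1 (1-649) from Sf9 cells phosphorylated MBP, with ATP, for 40 min at 25 °C across a 12-point series from 10 uM. ADP formed was quantified by ADP-Glo luminescence against DMSO controls. IC50 came from a four-parameter variable-slope fit of log concentration.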

Recombinant human ULK1 (1-649), sequence (O75385 1-649): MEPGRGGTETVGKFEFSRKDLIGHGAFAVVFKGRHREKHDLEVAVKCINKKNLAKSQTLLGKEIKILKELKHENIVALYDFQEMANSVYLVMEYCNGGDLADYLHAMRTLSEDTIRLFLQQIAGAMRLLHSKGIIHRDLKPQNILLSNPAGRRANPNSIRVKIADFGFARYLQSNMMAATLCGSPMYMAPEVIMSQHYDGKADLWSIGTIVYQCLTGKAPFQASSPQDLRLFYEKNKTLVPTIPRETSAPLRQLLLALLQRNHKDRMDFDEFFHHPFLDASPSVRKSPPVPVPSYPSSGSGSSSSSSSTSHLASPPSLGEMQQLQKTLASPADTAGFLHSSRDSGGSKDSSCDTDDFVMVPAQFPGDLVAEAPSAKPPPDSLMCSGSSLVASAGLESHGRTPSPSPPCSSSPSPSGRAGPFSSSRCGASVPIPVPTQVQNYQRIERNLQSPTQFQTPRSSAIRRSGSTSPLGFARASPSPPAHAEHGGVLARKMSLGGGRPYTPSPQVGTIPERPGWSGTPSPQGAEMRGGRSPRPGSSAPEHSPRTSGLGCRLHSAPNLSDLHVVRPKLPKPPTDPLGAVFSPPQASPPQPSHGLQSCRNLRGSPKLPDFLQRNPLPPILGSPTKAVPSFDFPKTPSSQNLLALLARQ

IC50 [nM]	Structure (SMILES)
≤ 10	CS(=O)(=O)c1cc(-c2nc(Nc3cc4c(cc3Cl)CNCC4)ncc2C(F)(F)F)sc1C1=CCOCC1 [Example 75, 7-chloro-N-(4-(5-(3,6-dihydro-2H-pyran-4-yl)-4-(methylsulfonyl)thiophen-2-yl)-5-(trifluoromethyl)pyrimidin-2-yl)-1,2,3,4-tetrahydroisoquinolin-6-amine]
10 to 50	CCc1cc2c(cc1Nc1ncc(C(F)(F)F)c(-c3cc(S(C)(=O)=O)cs3)n1)CN(C)C2 [Example 76, 6-ethyl-2-methyl-N-(4-(4-(methylsulfonyl)thiophen-2-yl)-5-(trifluoromethyl)pyrimidin-2-yl)isoindolin-5-amine]
≤ 10	CS(=O)(=O)c1cc(-c2nc(Nc3cc4c(cc3Cl)CNCC4)ncc2C(F)(F)F)sc1C1=CCS(=O)(=O)CC1 [Example 78, 4-(5-(2-((7-chloro-1,2,3,4-tetrahydroisoquinolin-6-yl)amino)-5-(trifluoromethyl)pyrimidin-4-yl)-3-(methylsulfonyl)thiophen-2-yl)-3,6-dihydro-2H-thiopyran 1,1-dioxide]
100 to 500	Cc1c(S(C)(=O)=O)csc1-c1nc(Nc2cc3c(cc2Cl)CNCC3)ncc1C(F)(F)F [Example 79, 7-chloro-N-(4-(3-methyl-4-(methylsulfonyl)thiophen-2-yl)-5-(trifluoromethyl)pyrimidin-2-yl)-1,2,3,4-tetrahydroisoquinolin-6-amine]
≤ 10	CN1Cc2cc(F)c(Nc3ncc(C(F)(F)F)c(-c4cc(S(C)(=O)=O)cs4)n3)cc2C1 [Example 80, 6-fluoro-N-[4-(4-methanesulfonylthiophen-2-yl)-5-(trifluoromethyl)pyrimidin-2-yl]-2-methyl-2,3-dihydro-1H-isoindol-5-amine]
≤ 10	O=C1NCCS(=O)(=O)c2cc(-c3nc(Nc4cc5c(cc4Cl)CNCC5)ncc3C(F)(F)F)sc21 [Example 82, 7-[2-[(7-chloro-1,2,3,4-tetrahydroisoquinolin-6-yl)amino]-5-(trifluoromethyl)pyrimidin-4-yl]-1,1-dioxo-3,4-dihydro-2H-thieno[2,3-f][1,4]thiazepin-5-one]
≤ 10	CS(=O)(=O)c1cc(-c2nc(Nc3cc4c(cc3Cl)CNCC4)ncc2C(F)(F)F)sc1N1CCOCC1 [Example 83, 7-Chloro-N-[4-(4-methylsulfonyl-5-morpholino-2-thienyl)-5-(trifluoromethyl)pyrimidin-2-yl]-1,2,3,4-tetrahydroisoquinolin-6-amine]
≤ 10	O=S1(=O)NCCCc2sc(-c3nc(Nc4cc5c(cc4Cl)CNCC5)ncc3C(F)(F)F)cc21 [Example 84, 7-(2-((7-chloro-1,2,3,4-tetrahydroisoquinolin-6-yl)amino)-5-(trifluoromethyl)pyrimidin-4-yl)-2,3,4,5-tetrahydrothieno[2,3-f][1,2]thiazepine 1,1-dioxide]
≤ 10	O=S1(=O)NCCOc2sc(-c3nc(Nc4cc5c(cc4Cl)CNCC5)ncc3C(F)(F)F)cc21 [Example 85, 7-chloro-N-[4-(1,1-dioxo-3,4-dihydro-2H-thieno[2,3-b][1,4,5]oxathiazepin-7-yl)-5-(trifluoromethyl)pyrimidin-2-yl]-1,2,3,4-tetrahydroisoquinolin-6-amine]
≤ 10	CN1CCc2cc(Nc3ncc(C(F)(F)F)c(-c4cc5c(s4)C(=O)NCCS5(=O)=O)n3)c(Cl)cc2C1 [Example 86, 7-(2-((7-chloro-2-methyl-1,2,3,4-tetrahydroisoquinolin-6-yl)amino)-5 (trifluoromethyl)pyrimidin-4-yl)-3,4-dihydrothieno[2,3-f][1,4]thiazepin-5(2H)-one 1,1-dioxide]
≤ 10	CN1CCc2cc(Nc3ncc(C(F)(F)F)c(-c4cc(S(C)(=O)=O)c(C5CCOCC5)s4)n3)c(Cl)cc2C1 [Example 87, 7-chloro-2-methyl-N-(4-(4-(methylsulfonyl)-5-(tetrahydro-2H-pyran-4-yl)thiophen-2-yl)-5-(trifluoromethyl)pyrimidin-2-yl)-1,2,3,4-tetrahydroisoquinolin-6-amine]
≤ 10	CN1Cc2cc(Nc3ncc(C(F)(F)F)c(-c4cc(S(C)(=O)=O)cs4)n3)c(C3CC3)cc2C1 [Example 88, 6-cyclopropyl-N-[4-(4-methanesulfonylthiophen-2-yl)-5-(trifluoromethyl)pyrimidin-2-yl]-2-methyl-2,3-dihydro-1H-isoindol-5-amine]
10 to 50	CS(=O)(=O)c1csc(-c2nc(Nc3cc4c(cc3Cl)CNCC4)ncc2C2CC2)c1 [Example 89, 7-chloro-N-(5-cyclopropyl-4-(4-(methylsulfonyl)thiophen-2-yl)pyrimidin-2-yl)-1,2,3,4-tetrahydroisoquinolin-6-amine]
≤ 10	CS(=O)(=O)c1cc(-c2nc(Nc3cc4c(cc3Cl)CNCC4)ncc2C(F)(F)F)sc1N1CCS(=O)(=O)CC1 [Example 90, 4-(5-(2-((7-chloro-1,2,3,4-tetrahydroisoquinolin-6-yl)amino)-5-(trifluoromethyl)pyrimidin-4-yl)-3-(methylsulfonyl)thiophen-2-yl)thiomorpholine 1,1-dioxide]
≤ 10	CS(=O)(=O)c1csc(-c2nc(Nc3cc4c(cc3F)CNCC4)ncc2C(F)(F)F)c1 [Example 91, 7-fluoro-N-(4-(4-(methylsulfonyl)thiophen-2-yl)-5-(trifluoromethyl)pyrimidin-2-yl)-1,2,3,4-tetrahydroisoquinolin-6-amine]
≤ 10	Cc1cc2c(cc1Nc1ncc(C(F)(F)F)c(-c3cc(S(C)(=O)=O)cs3)n1)CN(C)C2 [Example 92, 2,6-dimethyl-N-(4-(4-(methylsulfonyl)thiophen-2-yl)-5-(trifluoromethyl)pyrimidin-2-yl)isoindolin-5-amine]
≤ 10	CS(=O)(=O)c1csc(-c2nc(Nc3cc4c(cc3Cl)CNCC4)ncc2Cl)c1 [Example 93, 7-chloro-N-(5-chloro-4-(4-(methylsulfonyl)thiophen-2-yl)pyrimidin-2-yl)-1,2,3,4-tetrahydroisoquinolin-6-amine]
≤ 10	Cc1cnc(Nc2cc3c(cc2Cl)CNCC3)nc1-c1cc(S(C)(=O)=O)cs1 [Example 94, 7-chloro-N-(5-methyl-4-(4-(methylsulfonyl)thiophen-2-yl)pyrimidin-2-yl)-1,2,3,4-tetrahydroisoquinolin-6-amine]
≤ 10	CN1CCc2cc(Nc3ncc(C(F)(F)F)c(-c4cc(S(C)(=O)=O)cs4)n3)c(Cl)cc2C1 [Example 95, 7-chloro-2-methyl-N-(4-(4-(methylsulfonyl)thiophen-2-yl)-5-(trifluoromethyl)pyrimidin-2-yl)-1,2,3,4-tetrahydroisoquinolin-6-amine]
10 to 50	COCc1sc(-c2nc(Nc3cc4c(cc3Cl)CNCC4)ncc2C(F)(F)F)cc1S(C)(=O)=O [Example 96, 7-chloro-N-(4-(5-(methoxymethyl)-4-(methylsulfonyl)thiophen-2-yl)-5-(trifluoromethyl)pyrimidin-2-yl)-1,2,3,4-tetrahydroisoquinolin-6-amine]
≤ 10	CS(=O)(=O)c1cc(-c2nc(Nc3cc4c(cc3Cl)CNCC4)ncc2C(F)(F)F)sc1C1CCOCC1 [Example 97, 7-chloro-N-(4-(4-(methylsulfonyl)-5-(tetrahydro-2H-pyran-4-yl)thiophen-2-yl)-5-(trifluoromethyl)pyrimidin-2-yl)-1,2,3,4-tetrahydroisoquinolin-6-amine]
≤ 10	CN1CCc2cc(Nc3ncc(C(F)(F)F)c(-c4cc(S(C)(=O)=O)cs4)n3)c(F)cc2C1 [Example 98, 7-fluoro-2-methyl-N-(4-(4-(methylsulfonyl)thiophen-2-yl)-5-(trifluoromethyl)pyrimidin-2-yl)-1,2,3,4-tetrahydroisoquinolin-6-amine]
≤ 10	CS(=O)(=O)c1csc(-c2nc(Nc3cc4c(cc3Cl)CCNC4)ncc2C(F)(F)F)c1 [Example 99, 6-chloro-N-(4-(4-(methylsulfonyl)thiophen-2-yl)-5-(trifluoromethyl)pyrimidin-2-yl)-1,2,3,4-tetrahydroisoquinolin-7-amine]
≤ 10	CN1CCc2cc(Cl)c(Nc3ncc(C(F)(F)F)c(-c4cc(S(C)(=O)=O)cs4)n3)cc2C1 [Example 100, 6-chloro-2-methyl-N-(4-(4-(methylsulfonyl)thiophen-2-yl)-5-(trifluoromethyl)pyrimidin-2-yl)-1,2,3,4-tetrahydroisoquinolin-7-amine]
≤ 10	CS(=O)(=O)c1csc(-c2nc(Nc3ccc4c(c3)CNCC4)ncc2C(F)(F)F)c1 [Example 101, N-[4-(4-methanesulfonylthiophen-2-yl)-5-(trifluoromethyl)pyrimidin-2-yl]-1,2,3,4-tetrahydroisoquinolin-7-amine]
≤ 10	CN1CCc2ccc(Nc3ncc(C(F)(F)F)c(-c4cc(S(C)(=O)=O)cs4)n3)cc2C1 [Example 102, N-[4-(4-methanesulfonylthiophen-2-yl)-5-(trifluoromethyl)pyrimidin-2-yl]-2-methyl-1,2,3,4-tetrahydroisoquinolin-7-amine]
≤ 10	CN1CCN(c2ccc(Nc3ncc(C(F)(F)F)c(-c4cc(S(C)(=O)=O)cs4)n3)cc2)CC1 [Example 103, N-(4-(4-methylpiperazin-1-yl)phenyl)-4-(4-(methylsulfonyl)thiophen-2-yl)-5-(trifluoromethyl)pyrimidin-2-amine]
≤ 10	CS(=O)(=O)c1cc(-c2nc(Nc3cc4c(cc3Cl)CNCC4)ncc2C(F)(F)F)sc1C1CCS(=O)(=O)CC1 [Example 104, 4-(5-(2-((7-chloro-1,2,3,4-tetrahydroisoquinolin-6-yl)amino)-5-(trifluoromethyl)pyrimidin-4-yl)-3-(methylsulfonyl)thiophen-2-yl)tetrahydro-2H-thiopyran 1,1-dioxide]
≤ 10	CS(=O)(=O)c1csc(-c2nc(Nc3ccc4c(c3)CCNC4)ncc2C(F)(F)F)c1 [Example 105, N-(4-(4-(methylsulfonyl)thiophen-2-yl)-5-(trifluoromethyl)pyrimidin-2-yl)-1,2,3,4-tetrahydroisoquinolin-6-amine]
